Measured values reported in ChEMBL document CHEMBL5108033, “Salidroside attenuates sepsis-associated acute lung injury through PPP1R15A mediated endoplasmic reticulum stress inhibition” (2022).
Active and inactive are the calls of the source. No cut-off for these calls is given here.

Tests used:
[1] = system: Rattus norvegicus; assay: Protection against cecal ligation-induced Sprague-Dawley rat sepsis associated acute lung injury model assessed as reduction in serum TNF-alpha at 50 mg/kg, ip and measured after 24 hrs by ELISA; assay type: functional, organism-based
[2] = system: Rattus norvegicus; assay: Protection against cecal ligation-induced Sprague-Dawley rat sepsis associated acute lung injury model assessed as reduction in serum IL-1beta at 50 mg/kg, ip and measured after 24 hrs by ELISA; assay type: functional, organism-based
[3] = system: Rattus norvegicus; assay: Protection against cecal ligation-induced Sprague-Dawley rat sepsis associated acute lung injury model assessed as reduction in neutrophil elastase activity in BALF at 50 mg/kg, ip and measured after 24 hrs by Elastase assay; assay type: functional, organism-based
[4] = system: Rattus norvegicus; assay: Protection against cecal ligation-induced Sprague-Dawley rat sepsis associated acute lung injury model assessed as reduction in serum IL-6 at 50 mg/kg, ip and measured after 24 hrs by ELISA; assay type: functional, organism-based
[5] = system: Rattus norvegicus; assay: Protection against cecal ligation-induced Sprague-Dawley rat sepsis associated acute lung injury model assessed as reduction in total cell number in BALF at 50 mg/kg, ip and measured after 24 hrs by cell counter analysis; assay type: functional, organism-based
[6] = system: Rattus norvegicus; assay: Protection against cecal ligation-induced Sprague-Dawley rat sepsis associated acute lung injury model assessed as downregulation of cecal ligation induced ATF4 level at 50 mg/kg, ip and measured after 24 hrs; assay type: functional, organism-based
[7] = system: Rattus norvegicus; assay: Protection against cecal ligation-induced Sprague-Dawley rat sepsis associated acute lung injury model assessed as downregulation of cecal ligation induced phosphorylated eIF-2alpha level at 50 mg/kg, ip and measured after 24 hrs; assay type: functional, organism-based
[8] = system: Rattus norvegicus; assay: Protection against cecal ligation-induced Sprague-Dawley rat sepsis associated acute lung injury model assessed as reduction in albumin content in alveolar lavage fluid supernatant at 50 mg/kg, ip and measured after 24 hrs; assay type: functional, organism-based
[9] = system: Rattus norvegicus; assay: Protection against cecal ligation-induced Sprague-Dawley rat sepsis associated acute lung injury model assessed as reduction in lung wet weight to dry weight ratio at 50 mg/kg, ip and measured after 24 hrs; assay type: functional, organism-based
[10] = system: Rattus norvegicus; assay: Protection against cecal ligation-induced Sprague-Dawley rat sepsis associated acute lung injury model assessed as reduction in lung water content at 50 mg/kg, ip and measured after 24 hrs; assay type: functional, organism-based
[11] = system: Rattus norvegicus; assay: Protection against cecal ligation-induced Sprague-Dawley rat sepsis associated acute lung injury model assessed as reduction in lung injury at 50 mg/kg, ip and measured after 24 hrs by H and E staining based analysis; assay type: functional, organism-based
[12] = system: Rattus norvegicus; assay: Protection against cecal ligation-induced Sprague-Dawley rat sepsis associated acute lung injury model assessed as downregulation of cecal ligation induced GRP78 level at 50 mg/kg, ip and measured after 24 hrs; assay type: functional, organism-based
[13] = system: Rattus norvegicus; assay: Protection against cecal ligation-induced Sprague-Dawley rat sepsis associated acute lung injury model assessed as reduction in neutrophil number in BALF at 50 mg/kg, ip and measured after 24 hrs by cell counter analysis; assay type: functional, organism-based
[14] = system: Rattus norvegicus; assay: Protection against cecal ligation-induced Sprague-Dawley rat sepsis associated acute lung injury model assessed as downregulation of cecal ligation induced CHOP level at 50 mg/kg, ip and measured after 24 hrs; assay type: functional, organism-based
[15] = system: Rattus norvegicus; assay: Protection against cecal ligation-induced Sprague-Dawley rat sepsis associated acute lung injury model assessed as upregulation of cecal ligation inhibited PPP1R15A at 50 mg/kg, ip and measured after 24 hrs; assay type: functional, organism-based
[16] = system: Epithelial cell; assay: Downregulation of CHOP in LPS-stimulated human HBE cells with silenced PPP1R15A at 40 uM incubated for 1 hr in presence of TUDCA by western blot analysis; assay type: functional, cell-based
[17] = system: Epithelial cell; assay: Downregulation of ATF4 expression in LPS-stimulated human HBE cells at 40 uM incubated for 1 hr by western blot analysis; assay type: functional, cell-based
[18] = system: Epithelial cell; assay: Inhibition of apoptosis in LPS-stimulated human HBE cells assessed as viable cells at 40 uM incubated for 1 hr by AnnexinV-FITC/PI staining based flow cytometric analysis (Rvb=72.3%); assay type: functional; conditions: read-out: Activity
[19] = system: Epithelial cell; assay: Induction of apoptosis in LPS-stimulated human HBE cells with silenced PPP1R15A assessed as late apoptotic cells at 40 uM incubated for 1 hr by AnnexinV-FITC/PI staining based flow cytometric analysis (Rvb=85.7%); assay type: functional
[20] = system: Epithelial cell; assay: Induction of apoptosis in LPS-stimulated human HBE cells with silenced PPP1R15A assessed as late apoptotic cells at 40 uM incubated for 1 hr by AnnexinV-FITC/PI staining based flow cytometric analysis (Rvb=2.30%); assay type: functional
[21] = system: Epithelial cell; assay: Downregulation of phosphorylated eIF-2alpha expression in LPS-stimulated human HBE cells at 40 uM incubated for 1 hr by western blot analysis; assay type: functional, cell-based
[22] = system: Epithelial cell; assay: Induction of apoptosis in LPS-stimulated human HBE cells with silenced PPP1R15A assessed as early apoptotic cells at 40 uM incubated for 1 hr by AnnexinV-FITC/PI staining based flow cytometric analysis (Rvb=11%); assay type: functional
[23] = system: Epithelial cell; assay: Cytotoxicity against LPS-stimulated human HBE cells assessed as increase in cell viability at 40 uM and measured for 24 to 72 hrs by CCK-8 assay; assay type: functional, cell-based; conditions: time 24-72 hrs
[24] = system: Epithelial cell; assay: Downregulation of GRP78 in LPS-stimulated human HBE cells with silenced PPP1R15A at 40 uM incubated for 1 hr in presence of TUDCA by western blot analysis; assay type: functional, cell-based
[25] = system: Epithelial cell; assay: Downregulation of GRP78 expression in LPS-stimulated human HBE cells at 40 uM incubated for 1 hr by western blot analysis; assay type: functional, cell-based
[26] = system: Epithelial cell; assay: Downregulation of CHOP expression in LPS-stimulated human HBE cells at 40 uM incubated for 1 hr by western blot analysis; assay type: functional, cell-based
[27] = system: Epithelial cell; assay: Downregulation of phosphorylated eIF-2alpha expression in LPS-stimulated human HBE cells with silenced PPP1R15A at 40 uM incubated for 1 hr in presence of TUDCA by western blot analysis; assay type: functional, cell-based
[28] = system: Epithelial cell; assay: Inhibition of apoptosis in LPS-stimulated human HBE cells with silenced PPP1R15A assessed as early apoptotic cells at 40 uM incubated for 1 hr in presence of TUDCA by AnnexinV-FITC/PI staining based flow cytometric analysis (Rvb=9.22%); assay type: functional; design: scale not given: the % may be the effect or the level left
[29] = system: Epithelial cell; assay: Upregulation of PPP1R15A expression in LPS-stimulated human HBE cells assessed as inhibition of LPS down regulated PPP1R15A expression at 40 uM incubated for 1 hrs by qRT-PCR analysis; assay type: functional, cell-based
[30] = system: Epithelial cell; assay: Downregulation of ATF4 in LPS-stimulated human HBE cells with silenced PPP1R15A at 40 uM incubated for 1 hr in presence of TUDCA by western blot analysis; assay type: functional, cell-based
[31] = system: Epithelial cell; assay: Inhibition of apoptosis in LPS-stimulated human HBE cells assessed as early apoptotic cells at 40 uM incubated for 1 hr by AnnexinV-FITC/PI staining based flow cytometric analysis (Rvb=21.5%); assay type: functional; design: scale not given: the % may be the effect or the level left
[32] = system: Epithelial cell; assay: Induction of apoptosis in LPS-stimulated human HBE cells with silenced PPP1R15A assessed as necrotic cells at 40 uM incubated for 1 hr by AnnexinV-FITC/PI staining based flow cytometric analysis (Rvb=0.518%); assay type: functional
[33] = system: Epithelial cell; assay: Inhibition of apoptosis in LPS-stimulated human HBE cells assessed as late apoptotic cells at 40 uM incubated for 1 hr by AnnexinV-FITC/PI staining based flow cytometric analysis (Rvb=5.75%); assay type: functional; design: scale not given: the % may be the effect or the level left
[34] = system: Epithelial cell; assay: Cytotoxicity against LPS-stimulated human HBE cells with silenced PPP1R15A assessed as increase in cell viability at 40 uM and measured for 24 to 72 hrs in presence of TUDCA by CCK-8 assay; assay type: functional, cell-based; conditions: time 24-72 hrs
[35] = system: Epithelial cell; assay: Inhibition of apoptosis in LPS-stimulated human HBE cells assessed as necrotic cells at 40 uM incubated for 1 hr by AnnexinV-FITC/PI staining based flow cytometric analysis (Rvb=0.444%); assay type: functional; design: scale not given: the % may be the effect or the level left
[36] = system: Epithelial cell; assay: Inhibition of apoptosis in LPS-stimulated human HBE cells with silenced PPP1R15A assessed as necrotic cells at 40 uM incubated for 1 hr in presence of TUDCA by AnnexinV-FITC/PI staining based flow cytometric analysis (Rvb=83.2%); assay type: functional; design: scale not given: the % may be the effect or the level left
[37] = system: Epithelial cell; assay: Inhibition of apoptosis in LPS-stimulated human HBE cells with silenced PPP1R15A assessed as late apoptotic cells at 40 uM incubated for 1 hr in presence of TUDCA by AnnexinV-FITC/PI staining based flow cytometric analysis (Rvb=5.08%); assay type: functional; design: scale not given: the % may be the effect or the level left
[38] = system: Epithelial cell; assay: Inhibition of apoptosis in LPS-stimulated human HBE cells with silenced PPP1R15A assessed as necrotic cells at 40 uM incubated for 1 hr in presence of TUDCA by AnnexinV-FITC/PI staining based flow cytometric analysis (Rvb=2.48%); assay type: functional; design: scale not given: the % may be the effect or the level left

SMILES: C[C@@H]1C[C@H]2[C@@H]3CCC4=CC(=O)C=C[C@]4(C)[C@@]3(F)[C@@H](O)C[C@]2(C)[C@@]1(O)C(=O)CO
- Activity [1]: Active
- Activity [2]: Active
- Activity [3]: Active
- Activity [4]: Active
- Activity [5]: Active
- Activity [6]: Active
- Activity [7]: Active
- Activity [8]: Active
- Activity [9]: Active
- Activity [10]: Active
- Activity [11]: Active
- Activity [12]: Active
- Activity [13]: Active
- Activity [14]: Active
- Activity [15]: Active

SMILES: OC[C@H]1O[C@@H](OCCc2ccc(O)cc2)[C@H](O)[C@@H](O)[C@@H]1O [SALIDROSIDE]
- Activity [16]: Active
- Activity [1]: Active
- Activity [2]: Active
- Activity [3]: Active
- Activity [17]: Active
- viability at 40 µM [18]: 84.7%
- Activity [19]: 74.3%
- Activity [20]: 3.74%
- Activity [21]: Active
- Activity [22]: 21.3%
- Activity [23]: Active
- Activity [4]: Active
- Activity [5]: Active
- Activity [24]: Active
- Activity [6]: Active
- Activity [25]: Active
- Activity [26]: Active
- Activity [7]: Active
- Activity [27]: Active
- Activity [28]: 11.5%
- Activity [29]: Active
- Activity [8]: Active
- Activity [30]: Active
- Activity [31]: 11%
- Activity [9]: Active
- Activity [32]: 0.436%
- Activity [33]: 3.27%
- Activity [34]: Active
- Activity [10]: Active
- Activity [11]: Active
- Activity [12]: Active
- Activity [13]: Active
- Activity [14]: Active
- Activity [35]: 1.03%
- Activity [36]: 84%
- Activity [37]: 3.7%
- Activity [15]: Active
- Activity [38]: 0.817%
